# Assay results published in patent US7427485B2, “Method for classification of anti-psychotic drugs” (The Rockefeller University, priority 2001, dated 2008).
# Like-named read-outs stand apart in the source and are kept apart here.
# Columns and labels:
# DOI-induced behaviors = conditions: rats; 30 min pretreatment i.p.; fixed dose of DOI 3.0 mg/kg; cited from earlier work
# Ser133-CREB = assay: In vivo phosphorylation of CREB in mouse striatum (immunoblot, phosphorylation state-specific antibodies); parameters: species or system mice; conditions: for Ser133-CREB phosphorylation level (mean): eticlopride 0.5, haloperidol 0.2, clozapine 5 mg/kg i.p., time 0 control = 100; for levels of phospho-CREB (in words): haloperidol 0.2 mg/kg, eticlopride 0.5 mg/kg
# Description: (§1) Male C57/BL6 mice (groups of six) were administered intraperitoneal injections of one of three anti-psychotic compounds, haloperidol (a typical anti-psychotic), clozapine (an atypical anti-psychotic), or eticlopride (a selective dopamine D2 receptor antagonist). All animals were sacrificed by decapitation at 15, 30, or 60 minutes post-injection. After decapitation, the heads were immediately immersed in liquid nitrogen for 6 seconds to inactivate all protein activity. The brains were then dissected on an ice-cold surface and the striata removed and sonicated in 750 μl of 1% SDS, and then boiled for 10 minutes. Levels of phosphorylated DARPP-32, CREB, and ERK1 and ERK2 were then determined.
# (§2) In order to determine levels of phosphoproteins in brain tissue, aliquots of the brain homogenate were loaded onto 10% polyacrylamide gels and the proteins separated by SDS/PAGE analysis, and then transferred to poly(vinylidene difluoride) membranes as described by Towbin and colleagues (Towbin, H. et al. 1979. Proc. Natl. Acad. Sci. USA 76:4350-4354). The effect of the drugs on the phosphorylation of DARPP-32 at two sites (Thr34 and Thr75), ERK1 at two sites (Thr202 and Tyr204), ERK2 at two sites (Thr185 and Tyr187), and CREB at one site (Ser133) was assessed using phosphorylation state-specific antibodies according to standard methods. Anti-phospho-ERK1 and anti-phospho-ERK2 antibodies were obtained from Cell Signaling Technology (Beverly, Mass.). Anti-phospho-CREB antibody was obtained from Upstate Biotechnology (Lake Placid, N.Y.). Anti-phospho-DARPP32 antibodies were used that had been produced according to the methods disclosed in U.S. patent application Ser. No. 09/419,379, by Bibb et al., entitled “Methods of Identifying Agents That Regulate Phosphorylation/Dephosphorylation in Dopamine Signaling,” filed Oct. 15, 1999, and Ser. No. 09/687,959, by Bibb et al., entitled “Methods of Identifying Agents That Regulate Phosphorylation/Dephosphorylation in Dopamine Signaling,” filed Oct. 13, 2000, (each of which is incorporated herein by reference in its entirety). These methods were used to produce phosphorylation state-specific antibodies having specificity for Thr34-phosphorylated and Thr75-phosphorylated DARPP-32.
# Thr202- and Tyr204- ERK1 = assay: In vivo phosphorylation of ERK1 in mouse striatum (immunoblot, phosphorylation state-specific antibodies); conditions: for Thr202- and Tyr204- ERK1 phosphorylation level (mean): eticlopride 0.5, haloperidol 0.2, clozapine 5 mg/kg i.p., time 0 control = 100; for levels of phospho-ERK1 (in words): haloperidol 0.2 mg/kg, eticlopride 0.5 mg/kg
# Thr185- and Tyr187- ERK2 = assay: In vivo phosphorylation of ERK2 in mouse striatum (immunoblot, phosphorylation state-specific antibodies); parameters: species or system mice; conditions: for Thr185- and Tyr187- ERK2 phosphorylation level (mean): eticlopride 0.5, haloperidol 0.2, clozapine 5 mg/kg i.p., time 0 control = 100; for levels of phospho-ERK2 (in words): haloperidol 0.2 mg/kg, eticlopride 0.5 mg/kg
# Description: as §1, §2
# Thr75-DARPP-32 = assay: In vivo phosphorylation of DARPP-32 at Thr75 in mouse striatum (immunoblot, phosphorylation state-specific antibodies); conditions: for Thr75-DARPP-32 phosphorylation level (mean): eticlopride 0.5, haloperidol 0.2, clozapine 5 mg/kg i.p., time 0 control = 100
# Thr34-DARPP-32 = assay: In vivo phosphorylation of DARPP-32 at Thr34 in mouse striatum (immunoblot, phosphorylation state-specific antibodies); parameters: species or system mice; conditions: for Thr34-DARPP-32 phosphorylation level (mean): eticlopride 0.5, haloperidol 0.2, clozapine 5 mg/kg i.p., time 0 control = 100
# Description: as §1, §2
# DARPP-32 = conditions: chronic administration in rats; cited from earlier work
# c-fos = conditions: dorsal striatum; cited from earlier work
compound,measurement,setting,value
COc1cc(C(C)=O)ccc1OCCCN1CCC(c2noc3cc(F)ccc23)CC1 [iloperidone],"effect on the three behavioral effects of DOI (head-and-body shakes, forepaw tapping, skin-jerks)",DOI-induced behaviors,antagonize
"CN1CCN(C2=Nc3cc(Cl)ccc3Nc3ccccc32)CC1 [Clozapine, clozapine]",Ser133-CREB phosphorylation level (mean),Ser133-CREB; 15 min post-injection,51
same,Ser133-CREB phosphorylation level (mean),Ser133-CREB; 30 min post-injection,62
same,Ser133-CREB phosphorylation level (mean),Ser133-CREB; 60 min post-injection,57
same,Thr202- and Tyr204- ERK1 phosphorylation level (mean),Thr202- and Tyr204- ERK1; 15 min post-injection,90
same,Thr202- and Tyr204- ERK1 phosphorylation level (mean),Thr202- and Tyr204- ERK1; 30 min post-injection,75
same,Thr202- and Tyr204- ERK1 phosphorylation level (mean),Thr202- and Tyr204- ERK1; 60 min post-injection,33
same,Thr185- and Tyr187- ERK2 phosphorylation level (mean),Thr185- and Tyr187- ERK2; 15 min post-injection,62
same,Thr185- and Tyr187- ERK2 phosphorylation level (mean),Thr185- and Tyr187- ERK2; 30 min post-injection,41
same,Thr185- and Tyr187- ERK2 phosphorylation level (mean),Thr185- and Tyr187- ERK2; 60 min post-injection,15
same,Thr75-DARPP-32 phosphorylation level (mean),Thr75-DARPP-32; 15 min post-injection,179
same,Thr75-DARPP-32 phosphorylation level (mean),Thr75-DARPP-32; 30 min post-injection,216
same,Thr75-DARPP-32 phosphorylation level (mean),Thr75-DARPP-32; 60 min post-injection,203
same,Thr34-DARPP-32 phosphorylation level (mean),Thr34-DARPP-32; 15 min post-injection,188
same,Thr34-DARPP-32 phosphorylation level (mean),Thr34-DARPP-32; 30 min post-injection,209
same,Thr34-DARPP-32 phosphorylation level (mean),Thr34-DARPP-32; 60 min post-injection,222
N[C@@H]1C[C@H]1c1ccccc1 (racemic) [tranylcypromine],frontal cortex levels of DARPP-32 immunoreactivity,DARPP-32,significant increases
N alpha MeArg-Lys-Pro-Trp-Tle-Leu [NT1],"effect on the three behavioral effects of DOI (head-and-body shakes, forepaw tapping, skin-jerks)",DOI-induced behaviors,antagonize
"CCc1cc(Cl)c(OC)c(C(=O)NC[C@@H]2CCCN2CC)c1O [Eticlopride, eticlopride]",time after administration at which phospho-CREB levels returned to control levels,Ser133-CREB,60 min
same,Ser133-CREB phosphorylation level (mean),Ser133-CREB; 15 min post-injection,167
same,Ser133-CREB phosphorylation level (mean),Ser133-CREB; 30 min post-injection,146
same,Ser133-CREB phosphorylation level (mean),Ser133-CREB; 60 min post-injection,123
same,levels of phospho-CREB (in words),Ser133-CREB,significant increases
same,Thr202- and Tyr204- ERK1 phosphorylation level (mean),Thr202- and Tyr204- ERK1; 15 min post-injection,223
same,Thr202- and Tyr204- ERK1 phosphorylation level (mean),Thr202- and Tyr204- ERK1; 30 min post-injection,207
same,Thr202- and Tyr204- ERK1 phosphorylation level (mean),Thr202- and Tyr204- ERK1; 60 min post-injection,170
same,levels of phospho-ERK1 (in words),Thr202- and Tyr204- ERK1,significant increases
same,time after administration at which phospho-ERK2 levels returned to control levels,Thr185- and Tyr187- ERK2,30 min
same,Thr185- and Tyr187- ERK2 phosphorylation level (mean),Thr185- and Tyr187- ERK2; 15 min post-injection,132
same,Thr185- and Tyr187- ERK2 phosphorylation level (mean),Thr185- and Tyr187- ERK2; 30 min post-injection,97
same,Thr185- and Tyr187- ERK2 phosphorylation level (mean),Thr185- and Tyr187- ERK2; 60 min post-injection,96
same,levels of phospho-ERK2 (in words),Thr185- and Tyr187- ERK2,significant increases
same,Thr75-DARPP-32 phosphorylation level (mean),Thr75-DARPP-32; 15 min post-injection,80
same,Thr75-DARPP-32 phosphorylation level (mean),Thr75-DARPP-32; 30 min post-injection,70
same,Thr75-DARPP-32 phosphorylation level (mean),Thr75-DARPP-32; 60 min post-injection,80
same,DARPP-32 phosphorylation at Thr75 (in words),Thr75-DARPP-32; at 30 minutes,decreased
same,Thr34-DARPP-32 phosphorylation level (mean),Thr34-DARPP-32; 15 min post-injection,192
same,Thr34-DARPP-32 phosphorylation level (mean),Thr34-DARPP-32; 30 min post-injection,226
same,Thr34-DARPP-32 phosphorylation level (mean),Thr34-DARPP-32; 60 min post-injection,190
CCN1CCC[C@H]1CNC(=O)c1c(OC)ccc(Br)c1OC [remoxipride],"effect on the three behavioral effects of DOI (head-and-body shakes, forepaw tapping, skin-jerks)",DOI-induced behaviors,antagonize
CN(C)CCCN1c2ccccc2CCc2ccccc21 [imipramine],frontal cortex levels of DARPP-32 immunoreactivity,DARPP-32,significant increases
Cc1nc2sccn2c(=O)c1CCN1CCC(=C(c2ccc(F)cc2)c2ccc(F)cc2)CC1 [ritanserin],"effect on the three behavioral effects of DOI (head-and-body shakes, forepaw tapping, skin-jerks)",DOI-induced behaviors,antagonize
CCNC(=O)N1CCN(CCCC(c2ccc(F)cc2)c2ccc(F)cc2)CC1 [amperozide],"effect on the three behavioral effects of DOI (head-and-body shakes, forepaw tapping, skin-jerks)",DOI-induced behaviors,antagonize
"O=C(CCCN1CCC(O)(c2ccc(Cl)cc2)CC1)c1ccc(F)cc1 [Haloperidol, haloperidol]",time after administration at which phospho-CREB levels returned to control levels,Ser133-CREB,30 min
same,Ser133-CREB phosphorylation level (mean),Ser133-CREB; 15 min post-injection,148
same,Ser133-CREB phosphorylation level (mean),Ser133-CREB; 30 min post-injection,131
same,Ser133-CREB phosphorylation level (mean),Ser133-CREB; 60 min post-injection,114
same,levels of phospho-CREB (in words),Ser133-CREB,significant increases
same,frontal cortex levels of DARPP-32 immunoreactivity,DARPP-32,without effects
same,Thr202- and Tyr204- ERK1 phosphorylation level (mean),Thr202- and Tyr204- ERK1; 15 min post-injection,231
same,Thr202- and Tyr204- ERK1 phosphorylation level (mean),Thr202- and Tyr204- ERK1; 30 min post-injection,187
same,Thr202- and Tyr204- ERK1 phosphorylation level (mean),Thr202- and Tyr204- ERK1; 60 min post-injection,169
same,levels of phospho-ERK1 (in words),Thr202- and Tyr204- ERK1,significant increases
same,"inducing c-fos expression, as compared to clozapine",c-fos,much more effective
same,time after administration at which phospho-ERK2 levels returned to control levels,Thr185- and Tyr187- ERK2,30 min
same,Thr185- and Tyr187- ERK2 phosphorylation level (mean),Thr185- and Tyr187- ERK2; 15 min post-injection,151
same,Thr185- and Tyr187- ERK2 phosphorylation level (mean),Thr185- and Tyr187- ERK2; 30 min post-injection,114
same,Thr185- and Tyr187- ERK2 phosphorylation level (mean),Thr185- and Tyr187- ERK2; 60 min post-injection,107
same,levels of phospho-ERK2 (in words),Thr185- and Tyr187- ERK2,significant increases
same,DARPP-32 phosphorylation at Thr75 (in words),Thr75-DARPP-32,without effect
same,Thr75-DARPP-32 phosphorylation level (mean),Thr75-DARPP-32; 15 min post-injection,133
same,Thr75-DARPP-32 phosphorylation level (mean),Thr75-DARPP-32; 30 min post-injection,144
same,Thr75-DARPP-32 phosphorylation level (mean),Thr75-DARPP-32; 60 min post-injection,138
same,Thr34-DARPP-32 phosphorylation level (mean),Thr34-DARPP-32; 15 min post-injection,195
same,Thr34-DARPP-32 phosphorylation level (mean),Thr34-DARPP-32; 30 min post-injection,196
same,Thr34-DARPP-32 phosphorylation level (mean),Thr34-DARPP-32; 60 min post-injection,155
same,Thr34 phosphorylation (in words),Thr34-DARPP-32; at 60 minutes,no statistical difference from controls
same,Thr34 phosphorylation (in words),Thr34-DARPP-32; for up to 30 minutes,increased
same,"effect on the three behavioral effects of DOI (head-and-body shakes, forepaw tapping, skin-jerks)",DOI-induced behaviors,antagonize
COc1cccc([C@H](O)C2CCN(CCc3ccc(F)cc3)CC2)c1OC [M100907],"effect on the three behavioral effects of DOI (head-and-body shakes, forepaw tapping, skin-jerks)",DOI-induced behaviors,antagonize
CN1CC[C@]23c4c5ccc(O)c4O[C@H]2[C@@H](O)C=C[C@H]3[C@H]1C5 [morphine],frontal cortex levels of DARPP-32 immunoreactivity,DARPP-32,without effects
Cc1nc2n(c(=O)c1CCN1CCC(c3noc4cc(F)ccc34)CC1)CCCC2 [risperidone],"effect on the three behavioral effects of DOI (head-and-body shakes, forepaw tapping, skin-jerks)",DOI-induced behaviors,antagonize
